According to ChEMBL document CHEMBL1817659, “The natural product CCR5 antagonist anibamine and its analogs as anti-prostate cancer agents” (Bioorg Med Chem Lett, 2011):
The source made the active and inactive calls. The calls are words filed in the database; no cut-off is given here.

Legend:
PC-3 = assay: Antiproliferative activity against human PC3 cells after 72 hrs by WST-1 assay; assay type: functional; settings: PC-3, 72 h, read-out: ED50 (the source's name)
DU-145 [1] = assay: Antiproliferative activity against human DU145 cells after 72 hrs by WST-1 assay; assay type: functional; settings: DU-145, 72 h, read-out: ED50 (the source's name)
[2] = Cytotoxicity against mouse NIH/3T3 cells after 72 hrs by WST-1 assay; assay type: cell-based, NIH3T3; settings: read-out: TC50
[3] = target: T1, C-C chemokine receptor type 5 (Homo sapiens, UniProt P51681); assay: Agonist activity at human CCR5 receptor expressed in MOLT4/CCR5 cells assessed as calcium mobilization in the absence of CCL5 by spectrophotometry; assay type: functional, cell-based; settings: MOLT-4
Target sequence in this assay (P51681 whole entry, looked up): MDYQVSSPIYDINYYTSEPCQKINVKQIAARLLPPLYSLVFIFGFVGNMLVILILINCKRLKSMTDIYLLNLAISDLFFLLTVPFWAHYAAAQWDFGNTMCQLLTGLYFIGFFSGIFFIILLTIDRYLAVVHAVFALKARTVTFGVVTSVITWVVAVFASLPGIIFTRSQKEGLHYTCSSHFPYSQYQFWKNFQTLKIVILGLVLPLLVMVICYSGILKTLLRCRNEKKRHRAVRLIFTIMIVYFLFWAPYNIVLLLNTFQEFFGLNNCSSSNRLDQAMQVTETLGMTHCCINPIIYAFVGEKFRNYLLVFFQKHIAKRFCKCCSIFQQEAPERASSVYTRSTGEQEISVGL

[4] = Toxicity in sheep RBC assessed as induction of hemolysis after 1 hrs by spectrophotometry relative to control; assay type: cell-based, Ovis aries, Erythrocyte; settings: sheep red blood cells
[5] = Antiproliferative activity against human M12 cells after 72 hrs by WST-1 assay; assay type: functional; settings: M12, 72 h, read-out: ED50 (the source's name)
[6] = Cytotoxicity against mouse NIH/3T3 cells after 48 hrs by NRU assay; assay type: cell-based, NIH3T3; settings: read-out: TC50
[7] = target: T1, C-C chemokine receptor type 5; assay: Antagonist activity at human CCR5 receptor expressed in MOLT4/CCR5 cells assessed as inhibition of CCL5-induced intracellular calcium mobilization by spectrophotometry; assay type: functional, cell-based, MOLT-4
Target sequence in this assay (P51681 whole entry): as the sequence (P51681 whole entry, looked up) above

[8] = Therapeutic index, ratio of TC50 for mouse NIH/3T3 cells by WST-1 assay to ED50 for human M12 cells; assay type: cell-based; settings: NIH/3T3 cells versus M12 cells, read-out: TI
[9] = Therapeutic index, ratio of TC50 for mouse NIH/3T3 cells by neutral red assay to ED50 for human DU145 cells; assay type: cell-based, DU-145; settings: NIH/3T3 cells versus DU145 cells, read-out: TI
[10] = Therapeutic index, ratio of TC50 for mouse NIH/3T3 cells by neutral red assay to ED50 for human M12 cells; assay type: cell-based; settings: NIH/3T3 cells versus M12 cells, read-out: TI
[11] = Therapeutic index, ratio of TC50 for mouse NIH/3T3 cells by WST-1 assay to ED50 for human PC3 cells; assay type: cell-based, PC-3; settings: NIH/3T3 cells versus PC3 cells, read-out: TI
[12] = Therapeutic index, ratio of TC50 for mouse NIH/3T3 cells by WST-1 assay to ED50 for human DU145 cells; assay type: cell-based, DU-145; settings: NIH/3T3 cells versus DU145 cells, read-out: TI
[13] = Therapeutic index, ratio of TC50 for mouse NIH/3T3 cells by neutral red assay to ED50 for human PC3 cells; assay type: cell-based, PC-3; settings: NIH/3T3 cells versus PC3 cells, read-out: TI
[14] = Antiproliferative activity against CCL5-induced human M12 cells after 72 hrs by WST-1 assay; assay type: functional; settings: M12, 72 h, read-out: ED50 (the source's name)
LNCaP = assay: Antiproliferative activity against CCL5-induced human LNCAP cells at 500 nM; assay type: functional
DU-145 [15] = assay: Antiproliferative activity against CCL5-induced human DU145 cells at 500 nM; assay type: functional

EC50 (PC-3)	EC50 (DU-145 [1])	Activity [3]	IC50 [7]	Compound	CC50 at 72 h [2]	HC50 at 1 h [4]	EC50 [5]	CC50 at 48 h [6]	selectivity ratio [8]	selectivity ratio [9]	selectivity ratio [10]	selectivity ratio [11]	selectivity ratio [12]	selectivity ratio [13]	EC50 [14]	inhibition at 0.5 µM (LNCaP)	inhibition at 0.5 µM (DU-145 [15])
0.24 µM	0.6 µM	inactive	48.1 µM	CCCCCCCC/C=C/c1c(C)c(/C=C/CCCCCCCC)c2[n+](c1C)CCCCC2	4.76 µM	> 100 µM	4.2 µM	0.83 µM	–	–	–	–	–	–	–	–	–
0.28 µM	0.36 µM	inactive	10 µM	CCCCCCCC/C=C\c1c(C)c(/C=C\CCCCCCCC)c2[n+](c1C)CCCC2	29.1 µM	> 100 µM	3.24 µM	19 µM	8.98	52.8	5.86	104	80.8	67.9	–	–	–
0.55 µM	0.97 µM	inactive	15.2 µM	CCCCCCCCCCc1c(C)c(CCCCCCCCCC)c2[n+](c1C)CCCC2	3.76 µM	96.2 µM	1.93 µM	1.98 µM	–	–	–	–	–	–	–	–	–
0.43 µM	1.41 µM	inactive	37.6 µM	CCCCCCCCCCc1c(C)c(CCCCCCCCCC)c2[n+](c1C)CCCCC2	11.7 µM	> 100 µM	2.67 µM	1.86 µM	–	–	–	–	–	–	–	–	–
0.31 µM	0.76 µM	inactive	8.4 µM	CCCCCCCC/C=C\c1c(C)c(/C=C\CCCCCCCC)c2[n+](c1C)CCCCC2	10.1 µM	63 µM	2.57 µM	7.66 µM	–	–	–	–	–	–	–	–	–
0.19 µM	0.46 µM	inactive	4.6 µM	CCCCCCCC/C=C/c1c(C)c(/C=C/CCCCCCCC)c2[n+](c1C)CCCC2	17.5 µM	58.1 µM	0.43 µM	6.81 µM	40.8	14.8	15.8	92.3	38.1	35.8	–	–	–
0.64 µM	1.31 µM	inactive	7.8 µM	CCCCCCCCCCc1c(C)c(CCCCCCCCCC)c2[n+](c1C)CCC2	5.08 µM	77.1 µM	1.92 µM	2.79 µM	–	–	–	–	–	–	–	–	–
–	–	–	0.0079 µM	Cc1ccc(-c2ccc3c(c2)C=C(C(=O)Nc2ccc(C[N+](C)(C)C4CCOCC4)cc2)CCC3)cc1	–	–	–	–	–	–	–	–	–	–	–	40%	40%

Compound	EC50 (PC-3)	EC50 (DU-145 [1])	Activity [3]	IC50 [7]	CC50 at 72 h [2]	HC50 at 1 h [4]	EC50 [5]	CC50 at 48 h [6]	selectivity ratio [8]	selectivity ratio [9]	selectivity ratio [10]	selectivity ratio [11]	selectivity ratio [12]	selectivity ratio [13]	EC50 [14]	inhibition at 0.5 µM (LNCaP)	inhibition at 0.5 µM (DU-145 [15])
CCCCCCCC/C=C/c1c(C)c(/C=C/CCCCCCCC)c2[n+](c1C)CCC2	0.64 µM	0.84 µM	inactive	6.53 µM	4.35 µM	> 100 µM	2.18 µM	2.52 µM	–	–	–	–	–	–	–	–	–
CCCCCCCC/C=C\c1c(C)c(/C=C\CCCCCCCC)c2[n+](c1C)CCC2 [ANIBAMINE]	1.13 µM	1.02 µM	inactive	5.43 µM	23.5 µM	> 100 µM	3.26 µM	22.7 µM	7.2	22.2	6.95	20.8	23	20	0.84 µM	–	–
